Test results taken from ChEMBL document CHEMBL3407392, “Design, syntheses, structure-activity relationships and docking studies of coumarin derivatives as novel selective ligands for the CB2 receptor” (Eur J Med Chem, 2015).

Legend:
Cannabinoid receptor 1 [1] = biological target: T1, Cannabinoid receptor 1 (Homo sapiens, UniProt P21554); test: Agonist activity at CB1 receptor (unknown origin) expressed in CHO cells by calcium mobilization assay; type: functional, cell-based
Cannabinoid receptor 2 [2] = biological target: T2, Cannabinoid receptor 2 (Homo sapiens, UniProt P34972); test: Agonist activity at CB2 receptor (unknown origin) expressed in CHO cells at 10 uM by calcium mobilization assay relative to control; type: functional, cell-based
T2 sequence (P34972 whole entry): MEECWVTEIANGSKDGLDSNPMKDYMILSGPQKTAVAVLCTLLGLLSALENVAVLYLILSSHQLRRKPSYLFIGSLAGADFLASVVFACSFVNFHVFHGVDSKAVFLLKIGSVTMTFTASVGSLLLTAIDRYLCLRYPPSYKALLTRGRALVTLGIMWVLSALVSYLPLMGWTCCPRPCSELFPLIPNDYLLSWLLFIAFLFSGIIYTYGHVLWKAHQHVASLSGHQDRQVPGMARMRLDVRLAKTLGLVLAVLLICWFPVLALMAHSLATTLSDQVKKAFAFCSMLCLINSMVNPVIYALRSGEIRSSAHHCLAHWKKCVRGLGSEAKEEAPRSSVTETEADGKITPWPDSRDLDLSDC

Cannabinoid receptor 2 [3] = biological target: T2, Cannabinoid receptor 2; test: Antagonist activity at CB2 receptor (unknown origin) expressed in CHO cells up to 10 uM incubated for 10 mins prior to CP55940 addition by calcium mobilization assay; type: functional, cell-based
Cannabinoid receptor 1 [4] = biological target: T1, Cannabinoid receptor 1; type: functional, cell-based, CHO
Homo sapiens [5] = organism: Homo sapiens; test: Selectivity index, ratio of IC50 for CB1 receptor (unknown origin) to IC50 for CB2 receptor (unknown origin)
Cannabinoid receptor 2 [6] = biological target: T2, Cannabinoid receptor 2; test: Agonist activity at CB2 receptor (unknown origin) expressed in CHO cells by calcium mobilization assay; type: functional, cell-based
Homo sapiens [7] = organism: Homo sapiens; test: Selectivity index, ratio of EC50 for CB1 receptor (unknown origin) to EC50 for CB2 receptor (unknown origin)
Cannabinoid receptor 2 [8] = biological target: T2, Cannabinoid receptor 2; test: Binding affinity to CB2 receptor (unknown origin)

T1 sequence (P21554 whole entry): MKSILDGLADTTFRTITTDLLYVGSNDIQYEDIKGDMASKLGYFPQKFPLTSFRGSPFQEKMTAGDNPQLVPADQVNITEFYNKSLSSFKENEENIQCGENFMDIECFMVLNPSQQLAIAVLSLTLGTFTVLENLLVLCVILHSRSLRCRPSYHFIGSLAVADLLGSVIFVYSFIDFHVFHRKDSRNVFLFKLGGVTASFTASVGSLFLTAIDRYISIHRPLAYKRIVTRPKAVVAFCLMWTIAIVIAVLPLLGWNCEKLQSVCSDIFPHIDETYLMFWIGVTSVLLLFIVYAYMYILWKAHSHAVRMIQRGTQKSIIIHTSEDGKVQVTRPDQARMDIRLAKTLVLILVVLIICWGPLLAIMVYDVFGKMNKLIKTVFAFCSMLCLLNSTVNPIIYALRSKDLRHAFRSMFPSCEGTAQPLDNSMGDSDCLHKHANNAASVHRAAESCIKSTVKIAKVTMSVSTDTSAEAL

CCCCOc1cccc2cc(C(=O)NC3CC3)c(=O)oc12
EC50 (Cannabinoid receptor 1 [1]): > 10000 nM
Activity (Cannabinoid receptor 2 [2]): 34%

CCCCOc1c(OC)ccc2cc(C(=O)NC(C)C(C)C)c(=O)oc12 (stereo not drawn)
IC50 (Cannabinoid receptor 2 [3]): 28 nM
IC50 (Cannabinoid receptor 1 [4]): > 10000 nM
Ratio IC50 (Homo sapiens [5]): > 357

CCCCOc1cccc2cc(C(=O)NC3CCCCC3)c(=O)oc12
EC50 (Cannabinoid receptor 1 [1]): > 10000 nM
EC50 (Cannabinoid receptor 2 [6]): 144 nM
Ratio EC50 (Homo sapiens [7]): > 69.4

CCCCOc1cccc2cc(C(=O)NC(CC)CC)c(=O)oc12
EC50 (Cannabinoid receptor 1 [1]): > 10000 nM
EC50 (Cannabinoid receptor 2 [6]): 130 nM
Ratio EC50 (Homo sapiens [7]): > 76.9

O=C(NC1CCCCC1)c1cc2cc(Br)cc(OCC3CC3)c2oc1=O
IC50 (Cannabinoid receptor 2 [3]): 746 nM
IC50 (Cannabinoid receptor 1 [4]): > 10000 nM
Ratio IC50 (Homo sapiens [5]): > 13.4

CCCCOc1cccc2cc(C(=O)NN3CCOCC3)c(=O)oc12
EC50 (Cannabinoid receptor 1 [1]): > 10000 nM
EC50 (Cannabinoid receptor 2 [6]): > 10000 nM

O=C(NCC1CCOCC1)c1cnc(Nc2ccc(Cl)cc2Cl)nc1C(F)(F)F [GW842166X]
EC50 (Cannabinoid receptor 1 [1]): > 10000 nM
EC50 (Cannabinoid receptor 2 [6]): 431 nM
Ratio EC50 (Homo sapiens [7]): > 23.2

CCCCNC(=O)c1cc2cccc(OCCCC)c2oc1=O
EC50 (Cannabinoid receptor 1 [1]): > 10000 nM
EC50 (Cannabinoid receptor 2 [6]): > 10000 nM

CCCCCOc1c(OC)ccc2c(=O)n(CCc3ccc(O)cc3)ccc12
Ki (Cannabinoid receptor 2 [8]): 3.7 nM

CCCCCOc1cccc2cc(C(=O)NC3CCCCC3)c(=O)oc12
EC50 (Cannabinoid receptor 1 [1]): > 10000 nM
EC50 (Cannabinoid receptor 2 [6]): 245 nM
Ratio EC50 (Homo sapiens [7]): > 40.8

CCCCOc1cccc2cc(C(=O)NC(C)CCC)c(=O)oc12 (stereo not drawn)
EC50 (Cannabinoid receptor 1 [1]): > 10000 nM
EC50 (Cannabinoid receptor 2 [6]): 321 nM
Ratio EC50 (Homo sapiens [7]): > 31.2

CCCCOc1cccc2cc(C(=O)NC(C)(C)C)c(=O)oc12
EC50 (Cannabinoid receptor 1 [1]): > 10000 nM
EC50 (Cannabinoid receptor 2 [6]): 972 nM
Ratio EC50 (Homo sapiens [7]): > 10.3

CCCCCOc1c(OC)ccc2c1CN(CCc1ccc(N)cc1)C2=O
Ki (Cannabinoid receptor 2 [8]): 14 nM

CCCOc1c(OC)ccc2cc(C(=O)NC3CCCCC3)c(=O)oc12
IC50 (Cannabinoid receptor 2 [3]): 807 nM
IC50 (Cannabinoid receptor 1 [4]): > 10000 nM
Ratio IC50 (Homo sapiens [5]): > 12.4

CCCCCCOc1cc(Br)cc2cc(C(=O)NC3CCCCC3)c(=O)oc12
IC50 (Cannabinoid receptor 2 [3]): > 10000 nM
IC50 (Cannabinoid receptor 1 [4]): > 10000 nM

CCCCCNc1c(OC)ccc2c1CN(CCc1ccc(O)cc1)C2=O
Ki (Cannabinoid receptor 2 [8]): 0.088 nM

CCCCOc1cccc2cc(C(=O)NN3CCCCC3)c(=O)oc12
EC50 (Cannabinoid receptor 1 [1]): > 10000 nM
Activity (Cannabinoid receptor 2 [2]): 37%

CCCCOc1cccc2cc(C(=O)NCC3CC3)c(=O)oc12
EC50 (Cannabinoid receptor 1 [1]): > 10000 nM
EC50 (Cannabinoid receptor 2 [6]): > 10000 nM

CCCCCOc1ccc2c(c1OCCCCC)CN(CCc1ccc(N)cc1)C2=O
Ki (Cannabinoid receptor 2 [8]): 0.11 nM

CCCCOc1cccc2cc(C(=O)NC3CCCC3)c(=O)oc12
EC50 (Cannabinoid receptor 1 [1]): > 10000 nM
EC50 (Cannabinoid receptor 2 [6]): 793 nM
Ratio EC50 (Homo sapiens [7]): > 12.6

CCOc1cccc2cc(C(=O)NC3CCCCC3)c(=O)oc12
EC50 (Cannabinoid receptor 1 [1]): > 10000 nM
EC50 (Cannabinoid receptor 2 [6]): > 10000 nM

CCCCOc1c(OC)ccc2cc(C(=O)NC(CC)CC)c(=O)oc12
IC50 (Cannabinoid receptor 2 [3]): 20 nM
IC50 (Cannabinoid receptor 1 [4]): > 10000 nM
Ratio IC50 (Homo sapiens [5]): > 500

CCCCOc1cccc2cc(C(=O)N3CCCCC3)c(=O)oc12
EC50 (Cannabinoid receptor 1 [1]): > 10000 nM
EC50 (Cannabinoid receptor 2 [6]): > 10000 nM

CCCCCOc1cc(C(=O)NC2CCc3cc(O)c(O)cc3C2)ccc1OC (stereo not drawn)
Ki (Cannabinoid receptor 2 [8]): 18 nM

CCCCCSc1cc(/C=C/C(=O)NCCc2ccc(O)cc2)ccc1OC
Ki (Cannabinoid receptor 2 [8]): 1.1 nM

CCCCOc1cccc2cc(C(=O)NCc3ccccc3)c(=O)oc12
EC50 (Cannabinoid receptor 1 [1]): > 10000 nM
EC50 (Cannabinoid receptor 2 [6]): > 10000 nM

CCCCOc1c(OC)ccc2cc(C(=O)NC(C)CCC)c(=O)oc12 (stereo not drawn)
IC50 (Cannabinoid receptor 2 [3]): 19 nM
IC50 (Cannabinoid receptor 1 [4]): > 10000 nM
Ratio IC50 (Homo sapiens [5]): > 526

CCCOc1cccc2cc(C(=O)NC3CCCCC3)c(=O)oc12
EC50 (Cannabinoid receptor 1 [1]): > 10000 nM
EC50 (Cannabinoid receptor 2 [6]): > 10000 nM

CCCCCOc1c(OC)ccc2cc(C(=O)NC3CCCCC3)c(=O)oc12
IC50 (Cannabinoid receptor 2 [3]): 61 nM
IC50 (Cannabinoid receptor 1 [4]): > 10000 nM
Ratio IC50 (Homo sapiens [5]): > 164

CCCCCOc1c(OC)ccc2cc(C(=O)N3CCCc4ccccc4C3)c(=O)[nH]c12
Ki (Cannabinoid receptor 2 [8]): 118 nM

O=C(NC1CCCCC1)c1cc2cccc(OCc3ccccc3)c2oc1=O
EC50 (Cannabinoid receptor 1 [1]): > 10000 nM
Activity (Cannabinoid receptor 2 [2]): 33%

CCCCCOc1cc(/C=C/C(=O)NCCc2ccncc2)ccc1OC
Ki (Cannabinoid receptor 2 [8]): 44 nM

CCCCOc1c(OC)ccc2cc(C(=O)NC3CCCCC3)c(=O)oc12
IC50 (Cannabinoid receptor 2 [3]): 22 nM
IC50 (Cannabinoid receptor 1 [4]): > 10000 nM
Ratio IC50 (Homo sapiens [5]): > 454

CCCCCOc1c(OC)ccc2cc(C(=O)N3CCCC(C(=O)OCC)C3)c(=O)[nH]c12 (stereo not drawn)
Ki (Cannabinoid receptor 2 [8]): 100 nM

CCCCCOc1cc(Br)cc2cc(C(=O)NC3CCCCC3)c(=O)oc12
IC50 (Cannabinoid receptor 2 [3]): 2190 nM
IC50 (Cannabinoid receptor 1 [4]): > 10000 nM
Ratio IC50 (Homo sapiens [5]): 4.6

CCCCOc1c(OC)ccc2cc(C(=O)NCCc3ccccc3)c(=O)[nH]c12
Ki (Cannabinoid receptor 2 [8]): 0.33 nM

CCCCOc1c(OC)ccc2cc(C(=O)NCC3CC3)c(=O)oc12
IC50 (Cannabinoid receptor 2 [3]): 1180 nM
IC50 (Cannabinoid receptor 1 [4]): > 10000 nM
Ratio IC50 (Homo sapiens [5]): > 8.5

CCCCOc1cccc2cc(C(=O)NC(C)C)c(=O)oc12
EC50 (Cannabinoid receptor 1 [1]): > 10000 nM
EC50 (Cannabinoid receptor 2 [6]): 103 nM
Ratio EC50 (Homo sapiens [7]): > 97.1

CCCCCOc1c(OC)ccc2cc(C(=O)NCc3ccc4c(c3)OCO4)c(=O)oc12
IC50 (Cannabinoid receptor 2 [3]): 644 nM
IC50 (Cannabinoid receptor 1 [4]): > 10000 nM
Ki (Cannabinoid receptor 2 [8]): 0.087 nM
Ratio IC50 (Homo sapiens [5]): > 15.5

O=C(NC1CCCCC1)c1cc2cccc(OCC3CC3)c2oc1=O
EC50 (Cannabinoid receptor 1 [1]): > 10000 nM
Activity (Cannabinoid receptor 2 [2]): 42%

CCCCCOc1ccc(C(=O)NCCc2ccc(O)cc2)cc1OCCCCC
Ki (Cannabinoid receptor 2 [8]): 0.44 nM

CCCCCOc1cc(C(=O)NCCc2ccc(O)cc2)ccc1OC
Ki (Cannabinoid receptor 2 [8]): 2.5 nM

CCCOc1cc(Br)cc2cc(C(=O)NC3CCCCC3)c(=O)oc12
IC50 (Cannabinoid receptor 2 [3]): > 10000 nM
IC50 (Cannabinoid receptor 1 [4]): > 10000 nM

CCCCOc1cccc2cc(C(=O)NC34CC5CC(CC(C5)C3)C4)c(=O)oc12
EC50 (Cannabinoid receptor 1 [1]): > 10000 nM
EC50 (Cannabinoid receptor 2 [6]): > 10000 nM

CCCCOc1cc(Br)cc2cc(C(=O)NC(C)C)c(=O)oc12
IC50 (Cannabinoid receptor 2 [3]): > 10000 nM
IC50 (Cannabinoid receptor 1 [4]): > 10000 nM

CCCCCOc1c(OC)ccc2c1CCN(CCc1ccc(O)cc1)C2=O
Ki (Cannabinoid receptor 2 [8]): 1.8 nM

CCCCCOc1ccc(C(=O)NCCc2ccc(N)cc2)cc1SCCCCC
Ki (Cannabinoid receptor 2 [8]): 1.9 nM

CCCCCOc1c(OC)ccc2c1CN(CCc1ccc(O)cc1)C2=O
Ki (Cannabinoid receptor 2 [8]): 11 nM

CCCCCOc1cc(/C=C/C(=O)NCCc2ccc(O)cc2)ccc1OC
Ki (Cannabinoid receptor 2 [8]): 4.8 nM

CCCCOc1cccc2cc(C(=O)NC(C)C(C)C)c(=O)oc12 (stereo not drawn)
EC50 (Cannabinoid receptor 1 [1]): > 10000 nM
Activity (Cannabinoid receptor 2 [2]): 41%

CCCCCOc1cc(C(=O)NCCc2ccncc2)ccc1OC
Ki (Cannabinoid receptor 2 [8]): 73 nM

CCCCOc1cc(Br)cc2cc(C(=O)NC3CC3)c(=O)oc12
IC50 (Cannabinoid receptor 2 [3]): > 10000 nM
IC50 (Cannabinoid receptor 1 [4]): > 10000 nM

CCCCCOc1c(OC)ccc2c(=O)n(CCc3ccncc3)ccc12
Ki (Cannabinoid receptor 2 [8]): 8.4 nM

CCCCOc1c(OC)ccc2cc(C(=O)NC(C)C)c(=O)oc12
IC50 (Cannabinoid receptor 2 [3]): 162 nM
IC50 (Cannabinoid receptor 1 [4]): > 10000 nM
Ratio IC50 (Homo sapiens [5]): > 61.7

CCCCCCOc1cccc2cc(C(=O)NC3CCCCC3)c(=O)oc12
EC50 (Cannabinoid receptor 1 [1]): > 10000 nM
Activity (Cannabinoid receptor 2 [2]): 36%

CCCCOc1cc(Br)cc2cc(C(=O)NN3CCOCC3)c(=O)oc12
IC50 (Cannabinoid receptor 2 [3]): > 10000 nM
IC50 (Cannabinoid receptor 1 [4]): > 10000 nM

CCCCOc1cc(Br)cc2cc(C(=O)NC3CCCCC3)c(=O)oc12
IC50 (Cannabinoid receptor 2 [3]): 90 nM
IC50 (Cannabinoid receptor 1 [4]): > 10000 nM
Ratio IC50 (Homo sapiens [5]): > 111

CCCCCOc1c(OC)ccc2c1C(=O)N(CCc1ccc(O)cc1)C2=O
Ki (Cannabinoid receptor 2 [8]): 7.3 nM
